This is an account of results in US11730714B2, “Compounds for the treatment of neuromuscular disorders” (NMD PHARMA A/S, priority 2017, dated 2023).

One test relates to isolated rat muscle. The test is described as follows: Measurement of force in an in vitro model: isolated rat soleus nerve-muscle preparation, 115 nM tubocurarine. The test is classed as cell-based. As to conditions: 50 μM compound, 40 mins exposure, 115 nM tubocurarine, isolated rat soleus nerve-muscle preparation. The procedure: FIGS. 12A-12B. […] Force traces from a representative muscle stimulated to contract in 1) control condition before addition of neuromuscular blocking agent, 2) the force response to stimulation after 90 minutes incubation with Tubocurarine. […] The traces presented in FIG. 12A (1, 2, 3), correspond to the dotted lines in FIG. 12B, respectively.
Recovery of force is quantified as the percentage of the force prior to tubocurarine that is recovered by the compound.
The current invention relates to compounds that inhibit CIC-1 ion channels and increase muscle excitability and thereby improve muscle function in clinical conditions where muscle activation is failing. Such conditions result in loss of contractile function of skeletal muscle, weakness and excessive fatigue. […]
Experimentally, soleus muscles from 4-5 wk old rats were isolated with the motor nerve remaining attached. […] Stimulation of the motor nerve led to activation of the muscle fibres and ensuing force production that was recorded.
After mounting the nerve-muscle preparation in the experimental setup, the contractile function of the muscle was initially assessed under the control conditions (FIG. 2A). […] To quantify the ability of the compound to restore force the percentage of the initial force that was restored was determined after 40 mins of compound exposure (FIG. 2B) and the point increase is reported in Table 8.

The test system of a further test is Lewis rats. The test is described as follows: In situ muscle contractile characteristics: isometric hindlimb force in rats under Cisatracurium infusion. The test is classed as in vivo, rat. The conditions noted are these: 20 mg/kg i.v. The procedure:
Isometric hindlimb force was measured in 12-week old female Lewis rats in the presence and absence of compound.
Rats were placed under anesthesia with isoflurane (2-4%), intubated and subsequently connected to a micro ventilator (Microvent 1, Hallowell EMC, US). Two stimulation electrodes were inserted through the skin to stimulate the sciatic nerve. A small incision was made proximal to the ankle, to expose the Achilles tendon, which was tied by cotton string, and connected to a force transducer (Fort250, World Precision Instruments) with adjustable position (Vernier control). The Achilles tendon was then cut distal to the attached cotton string. […]
Muscle contractile properties were assessed by applying an electrical current (under supramaximal voltage conditions) to the nerve and recording the force generated by the muscle. The muscle was stretched until maximal force was obtained, when assessed by 2 Hz stimulation. Isometric force was measured every 30 seconds at 12 Hz (Twitch), 10 pulses, and at every 5 minutes at 80 Hz (Tetanic) for 1 second (80 pulses). […] The effect of test article was assessed on its ability to increase force generated from the stimulation pattern applied. The effect was assessed in the ability to increase force per se (tetanic, 80 Hz, stimulation), and the ratio between individual twitch peaks (12 Hz stimulation). […]

Another test addresses T1, human CIC-1 channels (Homo sapiens, UniProt P35523).
T1 construct: host or cells: CHO (Chinese hamster ovary) cells, cryopreserved, used directly after thawing
The test is described as follows: Automated patch-clamp on human CIC-1 expressed in CHO cells (shift in half activation voltage V1/2). The test is classed as cell-based. As to conditions: compound in intracellular solution vs vehicle control patches; CHO cells expressing human ClC-1. The procedure:
FIG. 13A-13B: FIG. 13A illustrates the voltage protocol used to evoke currents in whole cell patches of CHO cells expressing human CIC-1 channels.
The investigatory goal of these experiments was to evaluate how compounds affect the open probability and current amplitude of human CIC-1 channels expressed in CHO cells. Experiments were performed using an automated patch clamp system that allowed high throughput testing of whole cell patches together with both intracellular and extracellular addition of compound.
Automated whole cell patch clamp experiments were performed with the Qpatch 16 system (Sophion Bioscience, Ballerup, Denmark) at room temperature. Data acquisition and analysis were performed in the Qassay software (ver. 5.6, Odense).
To obtain tail currents, the membrane potential was stepped to −100 mV after each test voltage for 300 ms and then relaxed to −30 mV for 2 sec between sweeps (FIG. 3). I/V relationships for whole cell instant and steady state current amplitudes were obtained by plotting average current densities at the beginning and at the end of the 300 ms step against the membrane potential (FIG. 4).
In order to determine the relative overall open probability (Po), the instantaneous tail currents were normalized to the maximal tail current obtained following the most positive voltage step and plotted against the test voltage. Plots of normalized tail currents from each whole cell patch were then fitted to a Boltzmann function allowing determination of half activation voltages (V1/2, FIG. 5).
Osmolality adjusted to […] using sucrose.
Intracellular solutions contained: 80 mM […], 60 mM CsCl, 5/1 mM KOH/EGTA, 10 mM HEPES, 10 mM NaCl, pH adjusted to 7.2 with NaOH (2 M). Osmolality adjusted to ˜320 mOsm using sucrose.
Cells used in patch clamp experiments were Chinese hamster ovary cells (CHO) constitutively expressing human CIC-1 channels. The amino acid sequence encoded by the cDNA used to create this cell line was identical to the translated sequence for GenBank accession number NM_000083.2. Cells were produced by Charles River (Catalogue CT6175, Cleveland Ohio, USA) in a cryopreserved format. Experiments were performed on the cells directly after thawing (3×10^6 cells used in each experiment).
To evaluate the compound effect on CIC-1, when applied directly to the intracellular side of the cell membrane, the half activation voltage, V1/2, was determined from whole cell patches with compound added to the intracellular solution and then compared to V1/2 determined from control cell patches with only vehicle added to the intracellular solution. Additionally, the effect of extracellular added compound was evaluated by determine V1/2 and steady state current amplitudes before and after exchanging the extracellular solution to contain compound.
The difference in half activation voltage of CIC-1 channels, […]V1/2, was determined as the difference between the cell patches treated intracellularly with compound and control cells patches and is reported in Table 4 below. A positive shift in […]V1/2 is reflecting CIC-1 channel inhibition by the tested compound. P-values of <0.05 is considered significant.
For orientation: In patch-clamp work, channel activity is measured electrically.

T1 sequence (P35523 whole entry): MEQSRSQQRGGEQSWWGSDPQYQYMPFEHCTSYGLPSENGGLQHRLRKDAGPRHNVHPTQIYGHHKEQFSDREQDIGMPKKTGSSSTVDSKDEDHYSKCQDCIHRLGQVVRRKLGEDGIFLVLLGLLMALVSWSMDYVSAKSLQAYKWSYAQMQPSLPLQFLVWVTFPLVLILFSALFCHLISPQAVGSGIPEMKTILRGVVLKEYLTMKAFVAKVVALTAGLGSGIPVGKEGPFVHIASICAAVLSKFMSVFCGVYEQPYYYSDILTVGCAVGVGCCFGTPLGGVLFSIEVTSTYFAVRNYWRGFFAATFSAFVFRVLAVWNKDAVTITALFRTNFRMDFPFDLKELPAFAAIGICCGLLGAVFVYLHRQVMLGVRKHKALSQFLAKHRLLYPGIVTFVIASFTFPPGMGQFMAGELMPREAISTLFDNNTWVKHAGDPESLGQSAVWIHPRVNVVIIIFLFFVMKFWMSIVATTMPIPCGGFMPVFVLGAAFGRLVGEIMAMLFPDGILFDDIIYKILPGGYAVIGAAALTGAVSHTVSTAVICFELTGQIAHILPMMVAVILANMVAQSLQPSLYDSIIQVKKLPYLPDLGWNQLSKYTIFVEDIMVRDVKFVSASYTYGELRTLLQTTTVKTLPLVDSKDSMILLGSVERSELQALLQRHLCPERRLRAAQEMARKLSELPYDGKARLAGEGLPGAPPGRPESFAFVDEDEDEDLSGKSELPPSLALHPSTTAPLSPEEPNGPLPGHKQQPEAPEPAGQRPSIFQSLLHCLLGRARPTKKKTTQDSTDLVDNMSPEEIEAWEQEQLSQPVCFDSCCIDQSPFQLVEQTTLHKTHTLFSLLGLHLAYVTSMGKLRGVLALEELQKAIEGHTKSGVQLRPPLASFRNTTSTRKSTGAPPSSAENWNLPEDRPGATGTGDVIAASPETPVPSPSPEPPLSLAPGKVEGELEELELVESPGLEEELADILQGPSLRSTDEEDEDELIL

As for “(2S)-2-(4-bromophenoxy)(2-^2H)butanoic acid [Compound A-60]”, in the test on isolated rat muscle, the “Point increase (%) of initial force that was restored” value is 62%. Further, in the test with Lewis rats (12 Hz stimulation), the “average increase in twitch peaks” value turned out to be 18.5%. Also, in the test on Lewis rats (80 Hz stimulation), the “average increase in tetanic force” value is 52.7%. On human CIC-1 channels, the “ΔV½ (difference in half activation voltage of ClC-1)” value is recorded as 20.0 mV.
